For series [1], the target named is T1, Amine oxidase [flavin-containing] A (Homo sapiens, UniProt P21397).
T1 sequence (P21397 whole entry): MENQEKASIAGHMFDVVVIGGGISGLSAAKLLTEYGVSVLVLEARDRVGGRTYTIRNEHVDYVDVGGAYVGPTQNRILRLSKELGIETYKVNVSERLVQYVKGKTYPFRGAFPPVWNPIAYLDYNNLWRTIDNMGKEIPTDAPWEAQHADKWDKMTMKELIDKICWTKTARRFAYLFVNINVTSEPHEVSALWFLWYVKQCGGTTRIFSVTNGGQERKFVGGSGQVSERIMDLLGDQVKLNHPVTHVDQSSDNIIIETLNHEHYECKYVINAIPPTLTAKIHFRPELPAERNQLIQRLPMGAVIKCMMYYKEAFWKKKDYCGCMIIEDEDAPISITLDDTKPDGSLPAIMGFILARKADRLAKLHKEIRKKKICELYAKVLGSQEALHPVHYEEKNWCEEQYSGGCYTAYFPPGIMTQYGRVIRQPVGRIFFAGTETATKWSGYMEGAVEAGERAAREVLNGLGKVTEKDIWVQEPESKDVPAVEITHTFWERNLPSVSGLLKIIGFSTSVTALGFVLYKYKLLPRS
Kind of series: Inhibition of recombinant human MAO-A expressed in baculovirus infected insect cells using kynuramine as substrate at 10 uM by fluorescence based method relative to control. To be noted: Insect cell.

The target of series [2] is T2, Amine oxidase [flavin-containing] B (Homo sapiens, UniProt P27338).
T2 sequence (P27338 whole entry): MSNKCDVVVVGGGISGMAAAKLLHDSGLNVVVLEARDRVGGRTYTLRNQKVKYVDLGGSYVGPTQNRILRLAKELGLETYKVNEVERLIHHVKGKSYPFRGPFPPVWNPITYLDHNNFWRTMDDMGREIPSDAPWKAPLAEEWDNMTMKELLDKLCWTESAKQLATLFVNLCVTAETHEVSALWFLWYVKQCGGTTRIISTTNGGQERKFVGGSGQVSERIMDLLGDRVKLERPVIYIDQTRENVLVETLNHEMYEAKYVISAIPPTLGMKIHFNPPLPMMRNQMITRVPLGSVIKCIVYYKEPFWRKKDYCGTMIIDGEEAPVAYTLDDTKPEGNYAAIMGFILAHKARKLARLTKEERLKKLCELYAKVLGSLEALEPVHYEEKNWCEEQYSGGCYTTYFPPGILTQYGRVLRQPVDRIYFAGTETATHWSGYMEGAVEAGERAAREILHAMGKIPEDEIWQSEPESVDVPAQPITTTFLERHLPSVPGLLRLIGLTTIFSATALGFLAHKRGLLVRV
Kind of series: Inhibition of recombinant human MAO-B expressed in baculovirus infected insect cells using kynuramine as substrate at 10 uM by fluorescence based method relative to control. The conditions noted are these: Insect cell.

A short description of series [3]: Permeability of compound by PAMPA.
Series [4] has as its target T2, Amine oxidase [flavin-containing] B. Kind of series: biochemical. The series is classed as cell-based, Insect cell.
Description: Inhibition of recombinant human MAO-B expressed in baculovirus infected insect cells using kynuramine as substrate by fluorescence based method
The target in series [5] is Microtubule-associated protein tau (Homo sapiens, UniProt P10636). Kind of series: Inhibition of GFP/RFP-fused tau oligomerization in human SH-SY5Y cells incubated for 2 hrs by FRET assay. The series is classed as cell-based.
Chain of Microtubule-associated protein tau (P10636 whole entry, the tested form may be a part): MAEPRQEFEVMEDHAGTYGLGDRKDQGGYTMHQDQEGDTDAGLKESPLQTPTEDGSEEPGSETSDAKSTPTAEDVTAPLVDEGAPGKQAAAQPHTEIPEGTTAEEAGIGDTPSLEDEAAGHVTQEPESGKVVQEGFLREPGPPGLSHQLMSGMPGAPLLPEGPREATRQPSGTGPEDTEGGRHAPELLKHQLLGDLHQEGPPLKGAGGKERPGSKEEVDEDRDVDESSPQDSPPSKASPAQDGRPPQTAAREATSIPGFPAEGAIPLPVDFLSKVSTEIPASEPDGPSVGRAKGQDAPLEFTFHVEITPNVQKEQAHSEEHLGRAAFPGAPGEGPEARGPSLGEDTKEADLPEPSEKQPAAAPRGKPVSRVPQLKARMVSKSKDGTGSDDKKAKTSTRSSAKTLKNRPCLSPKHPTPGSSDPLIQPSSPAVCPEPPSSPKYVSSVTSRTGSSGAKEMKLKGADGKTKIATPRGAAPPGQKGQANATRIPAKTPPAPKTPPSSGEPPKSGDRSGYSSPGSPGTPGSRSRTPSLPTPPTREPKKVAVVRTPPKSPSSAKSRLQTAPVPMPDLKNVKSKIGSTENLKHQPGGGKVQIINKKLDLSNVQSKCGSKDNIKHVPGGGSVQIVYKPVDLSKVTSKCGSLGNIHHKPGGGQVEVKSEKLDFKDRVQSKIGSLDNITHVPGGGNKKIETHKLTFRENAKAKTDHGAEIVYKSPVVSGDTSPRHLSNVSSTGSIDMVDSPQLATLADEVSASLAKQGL
Series [6] concerns the target T3, Amine oxidase [flavin-containing] B (Rattus norvegicus, UniProt P19643).
T3 sequence (P19643 whole entry): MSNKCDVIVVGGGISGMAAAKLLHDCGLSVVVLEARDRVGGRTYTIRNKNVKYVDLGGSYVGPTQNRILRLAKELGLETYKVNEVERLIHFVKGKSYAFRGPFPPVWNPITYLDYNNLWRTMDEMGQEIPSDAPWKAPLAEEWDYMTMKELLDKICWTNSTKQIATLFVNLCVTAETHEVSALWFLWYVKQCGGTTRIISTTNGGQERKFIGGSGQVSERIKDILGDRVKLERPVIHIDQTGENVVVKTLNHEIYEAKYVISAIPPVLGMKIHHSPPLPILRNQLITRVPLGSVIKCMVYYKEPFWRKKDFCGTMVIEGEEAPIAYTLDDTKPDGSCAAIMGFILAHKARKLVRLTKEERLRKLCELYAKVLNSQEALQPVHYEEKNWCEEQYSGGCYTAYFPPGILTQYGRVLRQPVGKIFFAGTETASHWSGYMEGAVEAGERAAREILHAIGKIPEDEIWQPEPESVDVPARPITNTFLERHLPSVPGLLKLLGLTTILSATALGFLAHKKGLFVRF
Kind of series: Inhibition of rat brain mitochondria MAO-B using benzylamine as substrate incubated for 30 mins by absorbance based assay.

The target of series [7] is T1, Amine oxidase [flavin-containing] A. Put plainly: biochemical.
Description: Inhibition of recombinant human MAO-A expressed in baculovirus infected insect cells using kynuramine as substrate by fluorescence based method
Series [8] addresses T2, Amine oxidase [flavin-containing] B. Kind of series: Inhibition of human MAO-B incubated for 30 mins by Amplex Red assay.

Take `O=C(NCc1ccc(F)cc1F)c1nc2ccc(O)cc2s1`: in series [1], the inhibition at 10 µM worked out at 35%.
Still for that read-out and setting: for `O=C(NCC#Cc1ccccc1)c1nc2ccc(O)cc2s1` the value was 59%.
Same read-out and setting: then `COc1cc(CNC(=O)c2nc3ccc(O)cc3s2)cc(OC)c1`, with 43%; and `O=C(NCc1ccc(Cl)cc1)c1nc2ccc(O)cc2s1`, with 21%.
In the case of `O=C(NCc1cccc(F)c1F)c1nc2ccc(O)cc2s1`, the inhibition at 10 µM in series [1] was determined as 19%.
For the compound `O=C(NCc1ccc(-c2cccs2)cc1)c1nc2ccc(O)cc2s1`, the inhibition at 10 µM in series [1] was 18%; in series [2], 30%.
Turning to `COc1ccccc1CNC(=O)c1nc2ccc(O)cc2s1`, the inhibition at 10 µM in series [1] worked out at 25%.
Compound `CCn1cc(C(=O)O)c(=O)c2cc(F)c(N3CCNCC3)cc21` [NORFLOXACIN] had an apparent permeability (Papp) in series [3] of 1.25 ×10⁻⁶ cm/s.
Consider `O=C(NC1CC1)c1nc2ccc(O)cc2s1`, for which the inhibition at 10 µM amounted to 13% in series [1] and 52% in series [2].
Regarding `O=C(NCc1cccc(F)c1)c1nc2ccc(O)cc2s1`, in series [1], the inhibition at 10 µM stood at 8%.
In the case of `O=C(NCc1ccccc1)c1nc2ccc(O)cc2s1`, the inhibition at 10 µM in series [1] was 18%. The compound further yielded an IC50 in series [4] of 552 nM.
Consider `O=C(c1nc2ccc(O)cc2s1)N1Cc2ccc(Cl)cc2C1`, for which, in series [1], the inhibition at 10 µM was determined as 21%.
Turning to `Cc1ccc(CNC(=O)c2nc3ccc(O)cc3s2)cc1`, in series [1], the inhibition at 10 µM was 22%.
Same read-out and setting: for `O=C(NC1CCCCC1)c1nc2ccc(O)cc2s1` the value was 32%; for `O=C(NC1CCCC1)c1nc2ccc(O)cc2s1`, 35%.
As for `O=C(NCc1cccnc1)c1nc2ccc(O)cc2s1`, the inhibition at 10 µM in series [1] came to 28%; in series [2], 48%.
In the case of `Cc1ccccc1CNC(=O)c1nc2ccc(O)cc2s1`, the inhibition at 10 µM in series [1] stood at 15%.
With `O=C(NCC(c1ccccc1)c1ccccc1)c1nc2ccc(O)cc2s1`, the results for the inhibition at 10 µM in series [1] and in series [2] were 13% and 43%, respectively.
For `O=C(NCc1cc(C(F)(F)F)cc(C(F)(F)F)c1)c1nc2ccc(O)cc2s1`, the inhibition at 10 µM in series [1] was found to be 26%.
On the same count and under the same terms, for `COc1ccc(CNC(=O)c2nc3ccc(O)cc3s2)cc1F` the value was 32%.
`O=C(NCCc1ccccc1)c1nc2ccc(O)cc2s1` gave an EC50 in series [5] of 10500 nM. Besides, in series [1], the inhibition at 10 µM came out at 36%.
Regarding `O=C(N/N=C(\c1ccccc1)c1ccc(Cl)cc1)Nc1nc2ccc([N+](=O)[O-])cc2s1`, the IC50 in series [6] is 4 nM.
In the case of `O=C(NCc1ccc(F)cc1)c1nc2ccc(O)cc2s1`, the inhibition at 10 µM in series [1] turned out to be 52%.
Take `CC(C)(C)c1ccc(CNC(=O)c2nc3ccc(O)cc3s2)cc1`: the inhibition at 10 µM in series [1] came to 19%; in series [2], 44%.
As to `COc1cccc(CNC(=O)c2nc3ccc(O)cc3s2)c1`, in series [1], the inhibition at 10 µM was 18%.
Turning to `COc1ccc2nc(C(=O)NC3CCCCC3)sc2c1`, the inhibition at 10 µM in series [1] is greater than 60%. The compound further yielded an IC50 in series [7] of 3820 nM.
Turning to `O=C(NCCc1cc2ccccc2[nH]1)c1nc2ccc(O)cc2s1`, in series [5], it took 7520 nM to reach a half-maximal effect (EC50). Moreover, the inhibition at 10 µM in series [1] is 51%.
Take `O=C(c1nc2ccc(O)cc2s1)N1CCCCC1`: the figures for the inhibition at 10 µM in series [1] and in series [2] were 16% and 31%, respectively.
Consider `O=C(Nc1nc2ccc(O)cc2s1)C1CCCCC1`, for which the inhibition at 10 µM in series [1] is greater than 80%. Besides, the midpoint of inhibition in series [7], the IC50, lay at 1920 nM.
`O=C(NC1CCCCC1)c1nc2ccccc2s1`: the inhibition at 10 µM in series [1] is 26%.
Same read-out and setting: for `O=C(NCc1ccc(F)c(F)c1)c1nc2ccc(O)cc2s1` the value was 29%.
As to `COc1ccc2sc(SC(=O)N/N=C\c3csc([N+](=O)[O-])c3)nc2c1`, inhibition in series [8] was half-maximal at 60 nM (IC50).
Turning to `O=C(NCc1ccc(-c2ccccc2)cc1)c1nc2ccc(O)cc2s1`, the inhibition at 10 µM in series [1] came to 30%.
Same read-out and setting: then `COc1ccc(CNC(=O)c2nc3ccc(O)cc3s2)cc1OC`, with 13%.
`COc1ccc(CNC(=O)c2nc3ccc(O)cc3s2)cc1`: the inhibition at 10 µM in series [1] was determined as 22%; in series [2], 53%.
Take `Cc1cc(C)cc(CNC(=O)c2nc3ccc(O)cc3s2)c1`: the inhibition at 10 µM in series [1] amounted to 26%.
The same measure, in the same setting: then `O=C(c1nc2ccc(O)cc2s1)N1CCc2ccccc2C1`, with 17%; and `COc1cccc(CNC(=O)c2nc3ccc(O)cc3s2)c1OC`, with 11%; and `CCCCCCNC(=O)c1nc2ccc(O)cc2s1`, with 37%.
On the same count and under the same terms, then `O=C(NCc1ccccc1F)c1nc2ccc(O)cc2s1`, with 16%; and `O=C(NCc1cccc(Cl)c1)c1nc2ccc(O)cc2s1`, with 28%.
In the case of `O=C(NCc1ccco1)c1nc2ccc(O)cc2s1`, the inhibition at 10 µM in series [1] was determined as 10%; in series [2], 41%.
On to `COc1ccc(CNC(=O)c2nc3ccc(O)cc3s2)c(OC)c1`, for which the inhibition at 10 µM in series [1] came out at 26%.
On the same count and under the same terms, for `O=C(NCc1cccs1)c1nc2ccc(O)cc2s1` the value was 33%; for `Cc1cccc(CNC(=O)c2nc3ccc(O)cc3s2)c1`, 19%.
Take `O=C(NCc1ccc([N+](=O)[O-])cc1)c1nc2ccc(O)cc2s1`: the inhibition at 10 µM in series [1] stood at 15%.
As to `O=C(NCc1ccccc1Cl)c1nc2ccc(O)cc2s1`, the inhibition at 10 µM in series [1] came out at 24%.
As to `O=C(NCC1CCCCC1)c1nc2ccc(O)cc2s1`, in series [1], the inhibition at 10 µM is 32%.

The values are drawn from ChEMBL document CHEMBL5512636, “Novel 6-hydroxybenzothiazol-2-carboxamides as potent and selective monoamine oxidase B inhibitors endowed with neuroprotective activity” (Eur J Med Chem, 2024).
